Laboratory results taken from patent US9273057B2 (Bristol-Myers Squibb Company, priority 2012, dated 2016).
Counter-ions that a name gives are not always drawn.

Molecular target: CK2A1 (CK2α/β) (Homo sapiens, UniProt P68400)
Test: CK2 kinase assay, CK2A1 (CK2α/β)
Assay type: biochemical
Conditions: Table A; read-out: CK2A1 (CK2α/β) (IC50)

Chain of CK2A1 (CK2α/β) (P68400 whole entry, species assumed): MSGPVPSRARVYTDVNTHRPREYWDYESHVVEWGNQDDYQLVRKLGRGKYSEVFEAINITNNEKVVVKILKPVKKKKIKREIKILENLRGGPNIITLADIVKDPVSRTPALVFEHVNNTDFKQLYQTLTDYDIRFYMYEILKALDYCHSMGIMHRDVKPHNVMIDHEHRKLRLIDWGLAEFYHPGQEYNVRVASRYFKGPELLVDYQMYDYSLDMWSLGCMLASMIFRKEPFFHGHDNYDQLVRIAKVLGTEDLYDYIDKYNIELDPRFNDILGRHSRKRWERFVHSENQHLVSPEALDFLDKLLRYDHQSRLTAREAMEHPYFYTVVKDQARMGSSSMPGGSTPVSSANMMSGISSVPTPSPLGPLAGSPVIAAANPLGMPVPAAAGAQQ
Chain of CK2A1 (CK2α/β) (P67870 whole entry partner, species assumed): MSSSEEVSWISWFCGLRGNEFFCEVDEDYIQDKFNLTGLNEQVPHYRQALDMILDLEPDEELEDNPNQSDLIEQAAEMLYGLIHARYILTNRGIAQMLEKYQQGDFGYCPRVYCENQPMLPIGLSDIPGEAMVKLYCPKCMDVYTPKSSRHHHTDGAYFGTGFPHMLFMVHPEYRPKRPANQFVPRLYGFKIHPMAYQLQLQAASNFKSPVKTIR

IC50 [nM] | Structure (SMILES)
1.01 | CN1C(C)(C)CC(NC2CCN(c3cc(C#N)cc(Nc4nc(NC5CC5)c5ncc(C#N)n5n4)c3Cl)CC2)CC1(C)C [Example 124, 2-((2-chloro-5-cyano-3-(4-((1,2,2,6,6-pentamethyl-4-piperidinyl)amino)-1-piperidinyl)phenyl)amino)-4-(cyclopropylamino)imidazo [2,1-f][1,2,4]triazine-7-carbonitrile]
5.81 | CCNc1nc(Nc2cc(C#N)cc(N3CC[C@@H](NC(=O)OC)[C@H](OC(=O)C[C@@H](N)CC(C)C)C3)c2Cl)nn2c(C#N)cnc12 [Example 819, (S)-(3R,4R)-1-(2-chloro-5-cyano-3-((7-cyano-4-(ethylamino)imidazo[2,1-f][1,2,4]triazin-2-yl)amino)phenyl)-4-((methoxycarbonyl)amino)piperidin-3-yl 3-amino-5-methylhexanoate hydrochloride]
1.41 | CC(=O)N1CCC2(CCN(c3cc(C#N)cc(Nc4nc(NC5CC5)c5ncc(C#N)n5n4)c3Cl)CC2)C1 [Example 786, 2-((3-(2-acetyl-2,8-diazaspiro[4.5]decan-8-yl)-2-chloro-5-cyanophenyl)amino)-4-(cyclopropylamino)imidazo[2,1-f][1,2,4]triazine-7-carbonitrile]
1.31 | N#Cc1cc(Nc2nc(NC3CC3)c3ncc(C#N)n3n2)c(Cl)c(N2CCN3CCOC[C@@H]3C2)c1 [Example 309, (S)-2-((2-chloro-5-cyano-3-(hexahydropyrazino[2,1-c][1,4]oxazin-8(1H)-yl)phenyl)amino)-4-(cyclopropylamino)imidazo[2,1-f][1,2,4]triazine-7-carbonitrile]
5.37 | N#Cc1cnc2c(NC3CC3)nc(Nc3cc(OC(F)F)cc(N4CCNCC4)c3Cl)nn12 [Example 558, 2-((2-chloro-5-(difluoromethoxy)-3-(piperazin-1-yl)phenyl)amino)-4-(cyclopropylamino)imidazo[2,1-f][1,2,4]triazine-7-carbonitrile]
1.15 | CN1CCN(C2CCN(c3cc(C#N)cc(Nc4nc(NC5CC5)c5ncc(C#N)n5n4)c3Cl)CC2)CC1 [Example 12, 2-((2-chloro-5-cyano-3-(4-(4-methyl-1-piperazinyl)-1-piperidinyl)phenyl)amino)-4-(cyclopropylamino)imidazo [2,1-f][1,2,4]triazine-7-carbonitrile]
2.22 | CC(O)CN1CCN(c2cc(C(F)F)cc(Nc3nc(NC4CC4)c4ncc(C#N)n4n3)c2Cl)CC1 (racemic) [Example 249, (+/−) 2-((2-chloro-5-(difluoromethyl)-3-(4-(2-hydroxypropyl)-1-piperazinyl)phenyl)amino)-4-(cyclopropylamino)imidazo[2,1-f][1,2,4]triazine-7-carbonitrile]
0.4 | COC(=O)N[C@H]1CCN(C2CN(c3cc(C#N)cc(Nc4nc(NC5CC5)c5ncc(C#N)n5n4)c3Cl)C2)C[C@@H]1O (racemic) [Example 154, (+/−) methyl ((3S,4S)-1-(1-(2-chloro-5-cyano-3-((7-cyano-4-(cyclopropylamino)imidazo [2,1-f][1,2,4]triazin-2-yl)amino)phenyl)-3-azetidinyl)-3-hydroxy-4-piperidinyl)carbamate]
4.55 | CCNc1nc(Nc2cc(C#N)cc(C3CCN(C[C@H](C)O)CC3)c2Cl)nn2c(C#N)cnc12 [Example 214, 2-((2-chloro-5-cyano-3-(1-((2S)-2-hydroxypropyl)-4-piperidinyl)phenyl)amino)-4-(ethylamino)imidazo[2,1-f][1,2,4]triazine-7-carbonitrile]
0.9 | CCNc1nc(Nc2cc(C#N)cc(N3CC[C@@H](NC(=O)OC)[C@H](N(C)C4COC4)C3)c2Cl)nn2c(C#N)cnc12 [Example 750, methyl ((3R,4R)-1-(2-chloro-5-cyano-3-((7-cyano-4-(ethylamino)imidazo[2,1-f][1,2,4]triazin-2-yl)amino)phenyl)-3-(methyl(oxetan-3-yl)amino)piperidin-4-yl)carbamate]
0.24 | CC(=O)c1cc(C#N)cc(Nc2nc(NC3CC3)c3ncc(C#N)n3n2)c1Cl [Example 675, 2-((3-acetyl-2-chloro-5-cyanophenyl)amino)-4-(cyclopropylamino)imidazo[2,1-f][1,2,4]triazine-7-carbonitrile]
1.77 | CN(C)CC(=O)Nc1cc(C#N)cc(Nc2nc(NC3CC3)c3ncc(C#N)n3n2)c1Cl [Example 620, N-(2-chloro-5-cyano-3-((7-cyano-4-(cyclopropylamino)imidazo[2,1-f][1,2,4]triazin-2-yl)amino)phenyl)-2-(dimethylamino)acetamide]
0.62 | N#Cc1cc(Nc2nc(NC3CC3)c3ncc(C#N)n3n2)c(Cl)c(C2CCN(C(=O)C3(O)CC3)CC2)c1 [Example 232, 2-((2-chloro-5-cyano-3-(1-((1-hydroxycyclopropyl)carbonyl)-4-piperidinyl)phenyl)amino)-4-(cyclopropylamino)imidazo[2,1-f][1,2,4]triazine-7-carbonitrile]
0.82 | CCNc1nc(Nc2cc(C#N)cc(N3CC[C@H](NC(=O)OC)[C@@H](OP(=O)(O)O)C3)c2Cl)nn2c(C#N)cnc12 [Example 338, methyl ((3S,4S)-1-(2-chloro-5-cyano-3-((7-cyano-4-(ethylamino)imidazo[2,1-f][1,2,4]triazin-2-yl)amino)phenyl)-3-(phosphonooxy)-4-piperidinyl)carbamate]
0.67 | CN1CC2(CCN(c3cc(C#N)cc(Nc4nc(NC5CC5)c5ncc(C#N)n5n4)c3Cl)CC2)OC1=O [Example 780, 2-((2-chloro-5-cyano-3-(3-methyl-2-oxo-1-oxa-3,8-diazaspiro[4.5]decan-8-yl)phenyl)amino)-4-(cyclopropylamino)imidazo[2,1-f][1,2,4]triazine-7-carbonitrile]
0.96 | CC1(N2CCN(c3cc(C#N)cc(Nc4nc(NC5CC5)c5ncc(C#N)n5n4)c3Cl)CC2)COC1 [Example 311, 2-((2-chloro-5-cyano-3-(4-(3-methyl-3-oxetanyl)-1-piperazinyl)phenyl)amino)-4-(cyclopropylamino)imidazo[2,1-f][1,2,4]triazine-7-carbonitrile]
1.95 | COC(=O)Nc1cc(Nc2nc(NC3CC3)c3ncc(C#N)n3n2)c(Cl)c(N2CCC(N3CCOCC3)CC2)c1 [Example 205, methyl (4-chloro-3-((7-cyano-4-(cyclopropylamino)imidazo[2,1-f][1,2,4]triazin-2-yl)amino)-5-(4-(4-morpholinyl)-1-piperidinyl)phenyl)carbamate]
0.72 | N#Cc1cc(Nc2nc(NC3CC3)c3ncc(C#N)n3n2)c(Cl)c(N2CCN(C(=O)CC3CC3)CC2)c1 [Example 86]
0.62 | N#Cc1cc(Nc2nc(NC3CC3)c3ncc(C#N)n3n2)c(Cl)c(N2CCC(N[C@@H]3CCCC[C@@H]3F)CC2)c1 (racemic) [Example 127, (+/−) 2-(2-chloro-5-cyano-3-(4-((1R,2R)-2-fluorocyclohexylamino)piperidin-1-yl)phenylamino)-4-(cyclopropylamino)imidazo [1,2-f][1,2,4]triazine-7-carbonitrile]
0.54 | CCNc1nc(Nc2cc(C#N)cc(N3CC[C@@H]4[C@@H](C3)OC(=O)N4C3COC3)c2Cl)nn2c(C#N)cnc12 (racemic) [Example 838, (+/−)-2-((2-chloro-5-cyano-3-((3aR,7aR)-1-(oxetan-3-yl)-2-oxohexahydrooxazolo[5,4-c]pyridin-5(2H)-yl)phenyl)amino)-4-(ethylamino)imidazo[2,1-f][1,2,4]triazine-7-carbonitrile]
0.97 | CN1CC2CC1CN2c1cc(C#N)cc(Nc2nc(NCC(F)(F)F)c3ncc(C#N)n3n2)c1Cl (racemic) [Example 430, (+/−)-2-((2-chloro-5-cyano-3-((1R,4R)-5-methyl-2,5-diazabicyclo[2.2.1]heptan-2-yl)phenyl)amino)-4-((2,2,2-trifluoroethyl)amino)imidazo[2,1-f][1,2,4]triazine-7-carbonitrile]
0.45 | CC(C)(O)C(=O)N1CCC(c2cc(C#N)cc(Nc3nc(NC4CC4)c4ncc(C#N)n4n3)c2Cl)CC1 [Example 231, 2-((2-chloro-5-cyano-3-(1-(2-hydroxy-2-methylpropanoyl)-4-piperidinyl)phenyl)amino)-4-(cyclopropylamino)imidazo[2,1-f][1,2,4]triazine-7-carbonitrile]
0.63 | CN1CCC2(CCN(c3cc(C#N)cc(Nc4nc(NC5CC5)c5ncc(C#N)n5n4)c3Cl)CC2)C1=O (racemic) [Example 779, (+/−)-2-((2-chloro-5-cyano-3-(2-methyl-1-oxo-2,8-diazaspiro[4.5]decan-8-yl)phenyl)amino)-4-(cyclopropylamino)imidazo[2,1-f][1,2,4]triazine-7-carbonitrile]
1.66 | CN(CCO)CC(=O)Nc1cc(C#N)cc(Nc2nc(NC3CC3)c3ncc(C#N)n3n2)c1Cl [Example 619, N-(2-chloro-5-cyano-3-((7-cyano-4-(cyclopropylamino)imidazo[2,1-f][1,2,4]triazin-2-yl)amino)phenyl)-2-((2-hydroxyethyl)(methyl)amino)acetamide]
0.43 | CCNc1nc(Nc2cc(C#N)cc(N3CC[C@H]4NC(=O)O[C@@H]4C3)c2Cl)nn2c(C#N)cnc12 [Example 375, 2-((2-chloro-5-cyano-3-((3aR,7aR)-2-oxohexahydrooxazolo[5,4-c]pyridin-5(2H)-yl)phenyl)amino)-4-(ethylamino)imidazo[2,1-f][1,2,4]triazine-7-carbonitrile]
1.03 | CN1CCC2(CC1)CCN(c1cc(C#N)cc(Nc3nc(NC4CC4)c4ncc(C#N)n4n3)c1Cl)C2 (racemic) [Example 26, (+/−) 2-((2-chloro-5-cyano-3-(8-methyl-2,8-diazaspiro[4.5]dec-2-yl)phenyl)amino)-4-(cyclopropylamino)imidazo [2,1-f][1,2,4]triazine-7-carbonitrile]
4.06 | N#Cc1cc(Nc2nc(NC3CC3)c3ncc(C#N)n3n2)c(Cl)cc1CCCN1CCOCC1 [Example 567, 2-((2-chloro-5-cyano-4-(3-morpholinopropyl)phenyl)amino)-4-(cyclopropylamino)imidazo[2,1-f][1,2,4]triazine-7-carbonitrile]
